Source: the supplement of paper PMC8967900

test system: PF-382; test: selective drug sensitivity score (sDSS, relative to normal bone marrow) (sDSS (score)); higher = more potent and effective on the cell line relative to normal bone marrow cells; conditions: 72 h
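Further: ALL cell lines in 384-well plates, five doses spanning 10,000-fold, each plate scaled between vehicle and 100 µmol/L benzalkonium chloride controls, sDSS an adapted area-under-curve metric.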

Row | Structure (SMILES) | selective drug sensitivity score
1 | Cn1cc(C[C@@H](N)C(=O)O)c2ccccc21 [1-methyl-D-tryptophan] (top concentration 5000 nM) | -0.62
2 | CN(C)C[C@@H]1CCn2cc(c3ccccc32)C2=C(C(=O)NC2=O)c2cn(c3ccccc23)CCO1 [Ruboxistaurin] (top concentration 10000 nM) | -1.34
3 | CCNC(=O)CCC/C=C\C[C@@H]1[C@@H](/C=C/[C@@H](O)CCc2ccccc2)[C@H](O)C[C@@H]1O [Bimatoprost] (top concentration 5500 nM) | 0
4 | O=c1[nH]cc(F)c(=O)[nH]1 [Fluorouracil] (top concentration 10000 nM) | -0.64
5 | CC1(C)NC(=O)N(c2ccc([N+](=O)[O-])c(C(F)(F)F)c2)C1=O [Nilutamide] (top concentration 10000 nM) | -0.08
6 | CNC(=O)c1ccc2cc([C@@]3(O)CCn4cncc43)ccc2c1 [Orteronel] (top concentration 10000 nM) | 0
7 | CCC(C)(C)C(=O)O[C@H]1C[C@@H](C)C=C2C=C[C@H](C)[C@H](CC[C@@H]3C[C@@H](O)CC(=O)O3)[C@H]21 [Simvastatin] (top concentration 10000 nM) | 0.08
8 | C[C@]12CC[C@H](O)CC1=CC[C@@H]1[C@@H]2CC[C@]2(C)C(c3cccnc3)=CC[C@@H]12 [Abiraterone] (top concentration 5000 nM) | -0.12

test system: LC4-1; test: as above; conditions: 72 h

Row | Structure (SMILES) | selective drug sensitivity score
9 | Cn1cc(C[C@@H](N)C(=O)O)c2ccccc21 [1-methyl-D-tryptophan] (top concentration 5000 nM) | -0.62
10 | CN(C)C[C@@H]1CCn2cc(c3ccccc32)C2=C(C(=O)NC2=O)c2cn(c3ccccc23)CCO1 [Ruboxistaurin] (top concentration 10000 nM) | 0.16
11 | CCNC(=O)CCC/C=C\C[C@@H]1[C@@H](/C=C/[C@@H](O)CCc2ccccc2)[C@H](O)C[C@@H]1O [Bimatoprost] (top concentration 5500 nM) | 0
12 | O=c1[nH]cc(F)c(=O)[nH]1 [Fluorouracil] (top concentration 10000 nM) | 5.16
13 | CC1(C)NC(=O)N(c2ccc([N+](=O)[O-])c(C(F)(F)F)c2)C1=O [Nilutamide] (top concentration 10000 nM) | -0.48
14 | CNC(=O)c1ccc2cc([C@@]3(O)CCn4cncc43)ccc2c1 [Orteronel] (top concentration 10000 nM) | 4.9
15 | CCC(C)(C)C(=O)O[C@H]1C[C@@H](C)C=C2C=C[C@H](C)[C@H](CC[C@@H]3C[C@@H](O)CC(=O)O3)[C@H]21 [Simvastatin] (top concentration 10000 nM) | 2.18
16 | C[C@]12CC[C@H](O)CC1=CC[C@@H]1[C@@H]2CC[C@]2(C)C(c3cccnc3)=CC[C@@H]12 [Abiraterone] (top concentration 5000 nM) | 1.18

test system: COG-LL-317; test: as above; conditions: 72 h

Row | Structure (SMILES) | selective drug sensitivity score
17 | Cn1cc(C[C@@H](N)C(=O)O)c2ccccc21 [1-methyl-D-tryptophan] (top concentration 5000 nM) | -0.62
18 | CN(C)C[C@@H]1CCn2cc(c3ccccc32)C2=C(C(=O)NC2=O)c2cn(c3ccccc23)CCO1 [Ruboxistaurin] (top concentration 10000 nM) | 1.16
19 | CCNC(=O)CCC/C=C\C[C@@H]1[C@@H](/C=C/[C@@H](O)CCc2ccccc2)[C@H](O)C[C@@H]1O [Bimatoprost] (top concentration 5500 nM) | 0
20 | O=c1[nH]cc(F)c(=O)[nH]1 [Fluorouracil] (top concentration 10000 nM) | 8.26
21 | CC1(C)NC(=O)N(c2ccc([N+](=O)[O-])c(C(F)(F)F)c2)C1=O [Nilutamide] (top concentration 10000 nM) | -0.48
22 | CNC(=O)c1ccc2cc([C@@]3(O)CCn4cncc43)ccc2c1 [Orteronel] (top concentration 10000 nM) | 0
23 | CCC(C)(C)C(=O)O[C@H]1C[C@@H](C)C=C2C=C[C@H](C)[C@H](CC[C@@H]3C[C@@H](O)CC(=O)O3)[C@H]21 [Simvastatin] (top concentration 10000 nM) | 6.68
24 | C[C@]12CC[C@H](O)CC1=CC[C@@H]1[C@@H]2CC[C@]2(C)C(c3cccnc3)=CC[C@@H]12 [Abiraterone] (top concentration 5000 nM) | -0.12

test system: COG-LL-402h; test: as above; conditions: 72 h

Row | Structure (SMILES) | selective drug sensitivity score
25 | Cn1cc(C[C@@H](N)C(=O)O)c2ccccc21 [1-methyl-D-tryptophan] (top concentration 5000 nM) | -0.62
26 | CN(C)C[C@@H]1CCn2cc(c3ccccc32)C2=C(C(=O)NC2=O)c2cn(c3ccccc23)CCO1 [Ruboxistaurin] (top concentration 10000 nM) | 0.96
27 | CCNC(=O)CCC/C=C\C[C@@H]1[C@@H](/C=C/[C@@H](O)CCc2ccccc2)[C@H](O)C[C@@H]1O [Bimatoprost] (top concentration 5500 nM) | 0
28 | O=c1[nH]cc(F)c(=O)[nH]1 [Fluorouracil] (top concentration 10000 nM) | 3.36
29 | CC1(C)NC(=O)N(c2ccc([N+](=O)[O-])c(C(F)(F)F)c2)C1=O [Nilutamide] (top concentration 10000 nM) | -0.48
30 | CNC(=O)c1ccc2cc([C@@]3(O)CCn4cncc43)ccc2c1 [Orteronel] (top concentration 10000 nM) | 0
31 | CCC(C)(C)C(=O)O[C@H]1C[C@@H](C)C=C2C=C[C@H](C)[C@H](CC[C@@H]3C[C@@H](O)CC(=O)O3)[C@H]21 [Simvastatin] (top concentration 10000 nM) | 0.08
32 | C[C@]12CC[C@H](O)CC1=CC[C@@H]1[C@@H]2CC[C@]2(C)C(c3cccnc3)=CC[C@@H]12 [Abiraterone] (top concentration 5000 nM) | -0.12

test system: SEM cells; test: as above; conditions: 72 h

Row | Structure (SMILES) | selective drug sensitivity score
33 | Cn1cc(C[C@@H](N)C(=O)O)c2ccccc21 [1-methyl-D-tryptophan] (top concentration 5000 nM) | -0.32
34 | CN(C)C[C@@H]1CCn2cc(c3ccccc32)C2=C(C(=O)NC2=O)c2cn(c3ccccc23)CCO1 [Ruboxistaurin] (top concentration 10000 nM) | 0.66
35 | CCNC(=O)CCC/C=C\C[C@@H]1[C@@H](/C=C/[C@@H](O)CCc2ccccc2)[C@H](O)C[C@@H]1O [Bimatoprost] (top concentration 5500 nM) | 0
36 | O=c1[nH]cc(F)c(=O)[nH]1 [Fluorouracil] (top concentration 10000 nM) | 2.76
37 | CC1(C)NC(=O)N(c2ccc([N+](=O)[O-])c(C(F)(F)F)c2)C1=O [Nilutamide] (top concentration 10000 nM) | -0.48
38 | CNC(=O)c1ccc2cc([C@@]3(O)CCn4cncc43)ccc2c1 [Orteronel] (top concentration 10000 nM) | 0
39 | CCC(C)(C)C(=O)O[C@H]1C[C@@H](C)C=C2C=C[C@H](C)[C@H](CC[C@@H]3C[C@@H](O)CC(=O)O3)[C@H]21 [Simvastatin] (top concentration 10000 nM) | 1.58
40 | C[C@]12CC[C@H](O)CC1=CC[C@@H]1[C@@H]2CC[C@]2(C)C(c3cccnc3)=CC[C@@H]12 [Abiraterone] (top concentration 5000 nM) | -0.12
